Test results reported in US10717733B2, “Haloallylamine indole and azaindole derivative inhibitors of lysyl oxidases and uses thereof” (PHARMAXIS LTD., priority 2016, dated 2020).
Counter-ions that a name gives are not always drawn.

Legend:
Bovine LOX = Bovine LOX (Bos taurus (Bovine), UniProt P33072); test: LOX inhibition, peroxidase-coupled Amplex Red amine oxidase assay; assay type: biochemical; conditions: 30 min preincubation at 37° C., putrescine substrate
In short: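 Bovine LOX in 1.2 M urea, 50 mM sodium borate pH 8.2 with 1 μM mofegiline and 0.5 mM pargyline; putrescine at twice KM (e.g. 20 mM for LOX) with Amplex Red/HRP. Fluorescence (ex 565/em 590 nm) read kinetically over 30 min at 37–45 °C; IC50 from slopes.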

Human LOXL2 = Human LOXL2 (Homo sapiens (Human), UniProt Q9Y4K0); test: LOXL2 inhibition, peroxidase-coupled Amplex Red amine oxidase assay; assay type: biochemical; conditions: 30 min preincubation at 37° C., putrescine substrate
Human LOXL2, sequence (Q9Y4K0 26-774): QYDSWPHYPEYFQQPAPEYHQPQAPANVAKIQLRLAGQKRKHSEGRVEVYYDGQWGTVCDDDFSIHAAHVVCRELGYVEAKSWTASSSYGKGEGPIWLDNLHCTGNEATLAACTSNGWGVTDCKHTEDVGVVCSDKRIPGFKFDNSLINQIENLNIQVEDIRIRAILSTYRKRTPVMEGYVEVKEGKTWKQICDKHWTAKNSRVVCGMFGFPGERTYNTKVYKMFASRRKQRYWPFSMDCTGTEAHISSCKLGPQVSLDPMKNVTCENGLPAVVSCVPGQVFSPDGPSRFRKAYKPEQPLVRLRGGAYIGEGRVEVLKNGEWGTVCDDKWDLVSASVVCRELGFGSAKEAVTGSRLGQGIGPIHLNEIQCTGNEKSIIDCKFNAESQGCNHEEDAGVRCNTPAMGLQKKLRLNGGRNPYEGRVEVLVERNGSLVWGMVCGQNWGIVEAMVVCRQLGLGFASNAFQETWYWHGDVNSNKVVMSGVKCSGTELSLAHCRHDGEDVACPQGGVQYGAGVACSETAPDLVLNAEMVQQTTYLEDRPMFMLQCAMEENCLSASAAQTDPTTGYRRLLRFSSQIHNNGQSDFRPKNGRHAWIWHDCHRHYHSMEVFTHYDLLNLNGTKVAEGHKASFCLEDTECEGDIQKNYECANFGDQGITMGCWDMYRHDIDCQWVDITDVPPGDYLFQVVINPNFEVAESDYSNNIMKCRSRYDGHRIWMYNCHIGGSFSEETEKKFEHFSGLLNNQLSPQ
In short: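 Enzyme in 1.2 M urea, 50 mM sodium borate pH 8.2 with 1 μM mofegiline and 0.5 mM pargyline, preincubated 30 min at 37° C with compound (11-point CRC). Putrescine at twice KM (10 mM for LOXL2) with Amplex Red/HRP; fluorescence (ex 565, em 590) read kinetically 30 min; IC50 from slopes.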

[1] = biological target: human recombinant SSAO/VAP-1 (Homo sapiens (Human), UniProt Q16853); test: Inhibition of human recombinant SSAO/VAP-1 amine oxidase activity; assay type: biochemical; conditions: 30 min preincubation at 37° C., 600 μM benzylamine
human recombinant SSAO/VAP-1, sequence (Q16853 34-763): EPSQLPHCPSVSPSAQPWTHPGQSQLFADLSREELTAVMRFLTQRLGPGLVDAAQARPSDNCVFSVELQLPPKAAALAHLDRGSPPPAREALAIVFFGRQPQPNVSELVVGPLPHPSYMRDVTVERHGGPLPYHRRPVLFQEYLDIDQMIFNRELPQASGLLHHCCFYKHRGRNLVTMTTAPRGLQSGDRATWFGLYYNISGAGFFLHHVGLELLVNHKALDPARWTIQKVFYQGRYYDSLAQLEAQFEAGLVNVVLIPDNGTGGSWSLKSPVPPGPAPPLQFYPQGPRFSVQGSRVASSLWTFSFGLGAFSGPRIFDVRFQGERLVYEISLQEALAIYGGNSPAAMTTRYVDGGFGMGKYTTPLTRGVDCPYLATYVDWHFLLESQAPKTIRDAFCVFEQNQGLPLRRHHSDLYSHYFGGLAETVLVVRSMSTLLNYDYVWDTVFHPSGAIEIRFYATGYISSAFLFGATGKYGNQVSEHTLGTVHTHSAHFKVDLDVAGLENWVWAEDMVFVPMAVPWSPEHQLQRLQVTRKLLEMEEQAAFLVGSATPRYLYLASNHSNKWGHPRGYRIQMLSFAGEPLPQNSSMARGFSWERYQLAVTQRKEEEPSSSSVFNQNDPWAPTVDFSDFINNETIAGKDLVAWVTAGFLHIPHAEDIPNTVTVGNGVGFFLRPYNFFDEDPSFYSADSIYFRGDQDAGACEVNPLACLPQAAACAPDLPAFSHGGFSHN
In short: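 Purified SSAO/VAP-1 (residues 34-763, expressed in CHO Lec 8 cells; 0.25 μg/mL) preincubated 30 min at 37° C with compound in 0.1 M sodium phosphate pH 7.4. Reaction mix of 600 μM benzylamine, 120 μM Amplex Red and 1.5 U/mL HRP added; fluorescence (ex 565/em 590 nm) read every 2.5 min for 30 min; IC50 from kinetic slopes over 4-11 point curves.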

Recombinant human MAO-B = Recombinant human MAO-B (Homo sapiens (Human), UniProt P27338); test: Inhibition of human recombinant MAO-B; assay type: biochemical; conditions: benzylamine 100 μM
Recombinant human MAO-B, sequence (P27338 whole entry): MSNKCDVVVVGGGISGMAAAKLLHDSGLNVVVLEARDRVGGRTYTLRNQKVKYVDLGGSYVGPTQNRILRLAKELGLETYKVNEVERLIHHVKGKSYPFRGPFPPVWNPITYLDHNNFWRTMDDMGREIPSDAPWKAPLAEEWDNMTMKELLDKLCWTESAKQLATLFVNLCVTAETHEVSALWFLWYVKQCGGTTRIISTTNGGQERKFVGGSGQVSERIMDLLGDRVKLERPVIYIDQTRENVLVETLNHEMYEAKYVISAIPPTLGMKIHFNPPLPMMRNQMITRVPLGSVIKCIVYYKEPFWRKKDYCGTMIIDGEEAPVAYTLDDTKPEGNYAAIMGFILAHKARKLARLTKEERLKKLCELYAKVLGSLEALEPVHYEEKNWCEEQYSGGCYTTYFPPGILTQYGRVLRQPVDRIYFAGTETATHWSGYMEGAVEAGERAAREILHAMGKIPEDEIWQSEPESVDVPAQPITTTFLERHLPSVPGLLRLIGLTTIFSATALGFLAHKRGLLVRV
In short: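 Recombinant human MAO-B used as enzyme source (0.06 mg/mL, stated concentration). Run as for the human SSAO/VAP-1 assay, except benzylamine substrate at 100 μM.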

[2] = system: primary fibroblasts from confirmed cases of IPF; test: Collagen cross-link formation in in vitro fibroblastic foci model of IPF; assay type: cell-based, human; conditions: TGF-β1 stimulated foci, six weeks culture, FIGS. 7a and 7b
Description: The lung tissue of patients with idiopathic pulmonary fibrosis (IPF) is characterised by dense collections of myofibroblasts and extracellular matrix (ECM) termed ‘fibroblastic foci’. Using a novel in vitro model of fibroblastic foci (Jones et al., AJRCCM 191; 2015:A4912) the formation of lysyl oxidase (LOX) mediated collagen cross-links and the effects of the nonselective LOX inhibitor β-aminopropionitrile (BAPN) as well lysyl oxidase like-2 (LOXL2)-selective inhibitors were investigated.
Cultures of primary fibroblasts were grown out from clinical diagnostic biopsies of fibrotic lung and stored in liquid nitrogen. […]
To quantify collagen cross-links (Robins Biochem Soc Trans 2007; 35(5): 849-852; Saito et al Anal. Biochem. 1997; 253: 26-32; Sims, Avery & Bailey Methods in Molecular Biology 2000; vol 139: 11-26), cultures were treated with potassium borohydride to stabilise the reducible immature cross-links, and hydrolysed in 6N HCl at 100° C. for 16 hr. Total collagen content was assessed by hydroxyproline assay. Immature cross-links were assessed by LC/MS/MS and mature pyridinoline cross-links by ELISA. Cross-link data is expressed as moles of cross-link per mole collagen.

Bovine LOX, sequence (P33072 170-418): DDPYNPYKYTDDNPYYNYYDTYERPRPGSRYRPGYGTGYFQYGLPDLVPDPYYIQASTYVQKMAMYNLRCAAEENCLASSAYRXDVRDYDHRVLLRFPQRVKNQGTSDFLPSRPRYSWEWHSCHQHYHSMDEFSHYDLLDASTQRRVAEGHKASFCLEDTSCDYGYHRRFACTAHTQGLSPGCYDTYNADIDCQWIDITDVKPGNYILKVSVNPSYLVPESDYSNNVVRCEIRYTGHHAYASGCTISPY

| Structure (SMILES) | IC50 (Bovine LOX) | IC50 (Human LOXL2) | IC50 [1] | IC50 (Recombinant human MAO-B) | collagen cross-link formation (immature and mature cross-links) [2] |
| --- | --- | --- | --- | --- | --- |
| N#CCCN [BAPN, β-aminopropionitrile, reference compound] | > 1000 nM | < 1000 nM | > 3000 nM | > 3000 nM | reduced cross-link formation in a concentration dependent manner |
| Cc1c(-c2cccc(S(=O)(=O)N(C)C)c2)c2cc(C(=O)NC(C)C)ccc2n1C/C(F)=C/CN [Compound 35, (Z)-1-(4-amino-2-fluorobut-2-en-1-yl)-3-(3-(N,N-dimethylsulfamoyl)phenyl)-N-isopropyl-2-methyl-1H-indole-5-carboxamide] | > 300 nM | < 300 nM | > 3000 nM | > 3000 nM | – |
| CN(C)S(=O)(=O)c1cncc(-c2c(Cl)n(C/C(F)=C/CN)c3ccccc23)c1 [Compound 96, (Z)-5-(1-(4-amino-2-fluorobut-2-en-1-yl)-2-chloro-1H-indol-3-yl)-N,N-dimethylpyridine-3-sulfonamide] | > 300 nM | < 300 nM | > 3000 nM | > 3000 nM | – |
| Cc1c(-c2cccc(S(=O)(=O)N(C)C)c2)c2cc(C(=O)N(C)C)ccc2n1C/C(F)=C/CN [Compound 6, (Z)-1-(4-amino-2-fluorobut-2-en-1-yl)-3-(3-(N,N-dimethylsulfamoyl)phenyl)-N,N,2-trimethyl-1H-indole-5-carboxamide] | > 300 nM | < 300 nM | > 3000 nM | > 3000 nM | – |
| Cc1c(-c2cccc(S(=O)(=O)N(C)C)c2)c2ccc(C(=O)N(C)C)cc2n1C/C(F)=C/CN [Compound 10, (Z)-1-(4-amino-2-fluorobut-2-en-1-yl)-3-(3-(N,N-dimethylsulfamoyl)phenyl)-N,N,2-trimethyl-1H-indole-6-carboxamide] | > 300 nM | < 300 nM | > 3000 nM | > 3000 nM | – |
| CN(C)S(=O)(=O)c1cccc(-c2c(Cl)n(C/C(F)=C/CN)c3ccc(S(C)(=O)=O)cc23)c1 [Compound 100, (Z)-3-(1-(4-amino-2-fluorobut-2-en-1-yl)-2-chloro-5-(methylsulfonyl)-1H-indol-3-yl)-N,N-dimethylbenzenesulfonamide] | > 300 nM | < 300 nM | > 3000 nM | > 3000 nM | – |
| Cc1c(-c2cccc(S(=O)(=O)N(C)C)c2)c2cc(C(=O)O)ccc2n1C/C(F)=C/CN [Compound 8, (Z)-1-(4-amino-2-fluorobut-2-en-1-yl)-3-(3-(N,N-dimethylsulfamoyl)phenyl)-2-methyl-1H-indole-5-carboxylic acid] | > 300 nM | < 300 nM | > 3000 nM | > 3000 nM | – |
| Cc1c(-c2cncc(S(=O)(=O)N(C)C)c2)c2c(Cl)cccc2n1C/C(F)=C/CN [Compound 75, (Z)-5-(1-(4-amino-2-fluorobut-2-en-1-yl)-4-chloro-2-methyl-1H-indol-3-yl)-N,N-dimethylpyridine-3-sulfonamide] | > 300 nM | < 300 nM | > 3000 nM | > 3000 nM | – |
| Cc1c(-c2cccc(S(=O)(=O)N(C)C)c2)c2cc(C#N)ccc2n1C/C(F)=C/CN [Compound 51, (Z)-3-(1-(4-amino-2-fluorobut-2-en-1-yl)-5-cyano-2-methyl-1H-indol-3-yl)-N,N-dimethylbenzenesulfonamide] | > 300 nM | < 300 nM | > 3000 nM | > 3000 nM | – |
| Cc1c(-c2cccc(S(=O)(=O)N(C)C)c2)c2cc(C(=O)N(C)C(C)C)ccc2n1C/C(F)=C/CN [Compound 36, (Z)-1-(4-amino-2-fluorobut-2-en-1-yl)-3-(3-(N,N-dimethylsulfamoyl)phenyl)-N-isopropyl-N,2-dimethyl-1H-indole-5-carboxamide] | > 300 nM | < 300 nM | > 3000 nM | > 3000 nM | – |
| Cc1c(-c2cccc(N(C)S(C)(=O)=O)c2)c2cc(C(=O)O)ccc2n1C/C(F)=C/CN [Compound 38, (Z)-1-(4-amino-2-fluorobut-2-en-1-yl)-2-methyl-3-(3-(N-methylmethylsulfonamido)phenyl)-1H-indole-5-carboxylic acid] | > 300 nM | < 300 nM | > 3000 nM | > 3000 nM | – |
| CCOC(=O)c1ccc2c(c1)c(-c1cccc(Cl)c1)c(C)n2C/C(F)=C/CN [Compound 27, ethyl (Z)-1-(4-amino-2-fluorobut-2-en-1-yl)-3-(3-chlorophenyl)-2-methyl-1H-indole-5-carboxylate] | > 300 nM | < 300 nM | > 3000 nM | > 3000 nM | – |
| Cc1c(-c2cccc(C(=O)N(C)C)c2)c2cc(C(=O)O)ccc2n1C/C(F)=C/CN [Compound 16, (Z)-1-(4-amino-2-fluorobut-2-en-1-yl)-3-(3-(dimethylcarbamoyl)phenyl)-2-methyl-1H-indole-5-carboxylic Acid Hydrochloride] | > 300 nM | < 300 nM | > 3000 nM | > 3000 nM | – |
| Cc1c(-c2cncc(S(=O)(=O)N(C)C)c2)c2cc(F)ccc2n1C/C(F)=C/CN [Compound 71, (Z)-5-(1-(4-amino-2-fluorobut-2-en-1-yl)-5-fluoro-2-methyl-1H-indol-3-yl)-N,N-dimethylpyridine-3-sulfonamide] | > 300 nM | < 300 nM | > 3000 nM | > 3000 nM | – |
| Cc1c(-c2cccc(S(=O)(=O)N(C)C)c2)c2nc(N(C)C)ccc2n1C/C(F)=C/CN [Compound 105, (Z)-3-(1-(4-amino-2-fluorobut-2-en-1-yl)-5-(dimethylamino)-2-methyl-1H-pyrrolo[3,2-b]pyridin-3-yl)-N,N-dimethylbenzenesulfonamide Dihydrochloride] | > 300 nM | < 300 nM | > 3000 nM | > 3000 nM | – |
| NC/C=C(\F)Cn1cc(-c2ccc(F)cc2)c2ccccc21 [Compound 1, (Z)-3-fluoro-4-(3-(4-fluorophenyl)-1H-indol-1-yl)but-2-en-1-amine] | > 300 nM | < 300 nM | > 3000 nM | > 3000 nM | – |
